# Results as given in PubChem BioAssay (NCI).
# Values joined by “and” are separate entries in the source; they are usually repeats but may differ in a detail not shown here. Equal entries are not always repeated.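 Grown in 96-well plates, cells were treated for 48 hours with each compound at five concentrations. Insufficient inhibition: endpoint recorded as highest concentration tested. Abbreviation: GI50, concentration required for 50% inhibition of growth. At the TGI there is no net growth.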
# How the values were obtained:
# Assay in all cases: inhibition of tumour cell growth, NCI panel, 48 h
# [1] = test system: RPMI-8226 leukemia
# [2] = test system: SF-268 CNS
# [3] = test system: HCC-2998 colon
# [4] = test system: IGROV1 ovarian
# [5] = test system: BT-549 breast
# [6] = test system: OVCAR-8 ovarian
# [7] = test system: MOLT-4 leukemia
# [8] = test system: K-562 leukemia
# [9] = test system: RXF 393 renal
# [10] = test system: SW-620 colon
# [11] = test system: NCI/ADR-RES ovarian
# [12] = test system: OVCAR-5 ovarian
# [13] = test system: MCF7 breast
# [14] = test system: DU-145 prostate
# [15] = test system: SR leukemia
# [16] = test system: COLO 205 colon
# [17] = test system: OVCAR-4 ovarian
# [18] = test system: A549 NSCLC
# [19] = test system: SK-MEL-28 melanoma
# [20] = test system: SK-MEL-5 melanoma
# [21] = test system: SK-OV-3 ovarian
# [22] = test system: SF-295 CNS
# [23] = test system: NCI-H522 lung
# [24] = test system: KM12 colon
# [25] = test system: A498 renal
# [26] = test system: HCT-116 colon
# [27] = test system: HOP-62 NSCLC
# [28] = test system: MALME-3M melanoma
# [29] = test system: OVCAR-3 ovarian
# [30] = test system: M14 melanoma
# [31] = test system: HOP-92 NSCLC
# [32] = test system: HCT-15 colon
# [33] = test system: PC-3 prostate
# [34] = test system: SN12C renal
# [35] = test system: CCRF-CEM leukemia
# [36] = test system: UACC-62 melanoma
# [37] = test system: U251 CNS
# [38] = test system: EKVX NSCLC
# [39] = test system: HL-60(TB) leukemia
# [40] = test system: 786-0 renal
# [41] = test system: HS 578T breast
# [42] = test system: ACHN renal
# [43] = test system: CAKI-1 renal
# [44] = test system: HT29 colon
# [45] = test system: MDA-MB-435
# [46] = test system: SNB-75 CNS
# [47] = test system: NCI-H460 lung
# [48] = test system: LOX IMVI melanoma
# [49] = test system: TK-10 renal
# [50] = test system: SK-MEL-2 melanoma
# [51] = test system: UO-31 renal
# [52] = test system: UACC-257 melanoma
# [53] = test system: SNB-19 CNS
# [54] = test system: SF-539 CNS
# [55] = test system: NCI-H226 lung
# [56] = test system: NCI-H23 lung
# [57] = test system: T-47D breast
# [58] = test system: MDA-MB-231 breast
structure (smiles),measurement,setting,value
CO[C@@H](C)Cn1c(=O)n(C)c2cnc3ccc(-c4cncc(C(C)(C)O)c4)cc3c21,GI50,[1],186 nM and 59 nM
same,TGI,[1],2060 nM and 968 nM
same,GI50,[2],140 nM and 79.6 nM
same,TGI,[2],16800 nM and > 5750 nM
same,GI50,[3],257 nM and 88.5 nM
same,TGI,[3],13800 nM and > 10000 nM
same,GI50,[4],40.7 nM and 30.3 nM
same,TGI,[4],249 nM and 212 nM
same,GI50,[5],54 nM and 41 nM
same,TGI,[5],707 nM and 444 nM
same,GI50,[6],154 nM and 69.7 nM
same,TGI,[6],2900 nM and > 4100 nM
same,GI50,[7],196 nM and 163 nM
same,TGI,[7],1770 nM and 4100 nM
same,GI50,[8],302 nM and 132 nM
same,TGI,[8],> 100000 nM
same,GI50,[9],41.6 nM and 32.5 nM
same,TGI,[9],341 nM and 216 nM
same,GI50,[10],248 nM and 110 nM
same,TGI,[10],16400 nM and > 10000 nM
same,GI50,[11],1060 nM and 384 nM
same,TGI,[11],14000 nM and > 10000 nM
same,GI50,[12],191 nM and 95.6 nM
same,TGI,[12],> 100000 nM
same,GI50,[13],140 nM and 59.3 nM
same,TGI,[13],47900 nM and > 10000 nM
same,GI50,[14],93.5 nM and 59.1 nM
same,TGI,[14],> 100000 nM
same,GI50,[15],153 nM and 113 nM
same,TGI,[15],14900 nM and > 10000 nM
same,GI50,[16],145 nM and 92.4 nM
same,TGI,[16],1510 nM and 1490 nM
same,GI50,[17],105 nM and 51.4 nM
same,TGI,[17],676 nM and 667 nM
same,GI50,[18],76.8 nM and 53.5 nM
same,TGI,[18],1570 nM and > 3220 nM
same,GI50,[19],143 nM and 77.3 nM
same,TGI,[19],2500 nM and 573 nM
same,GI50,[20],103 nM and 99.2 nM
same,TGI,[20],408 nM and 418 nM
same,GI50,[21],48.8 nM and 42.4 nM
same,TGI,[21],358 nM and 285 nM
same,GI50,[22],49.5 nM and 37.3 nM
same,TGI,[22],422 nM and 328 nM
same,GI50,[23],51.3 nM
same,TGI,[23],653 nM
same,GI50,[24],326 nM and 122 nM
same,TGI,[24],12700 nM and > 10000 nM
same,GI50,[25],27.3 nM and 10.9 nM
same,TGI,[25],124 nM and 59.1 nM
same,GI50,[26],303 nM and 187 nM
same,TGI,[26],10800 nM and > 7650 nM
same,GI50,[27],126 nM and 81 nM
same,TGI,[27],1390 nM and 1410 nM
same,GI50,[28],58.4 nM and 63.8 nM
same,TGI,[28],317 nM and 480 nM
same,GI50,[29],119 nM and 65.6 nM
same,TGI,[29],6490 nM and > 3390 nM
same,GI50,[30],149 nM and 111 nM
same,TGI,[30],5100 nM and > 4680 nM
same,GI50,[31],109 nM and 27.9 nM
same,TGI,[31],644 nM and 188 nM
same,GI50,[32],141 nM and 77.5 nM
same,TGI,[32],23200 nM and > 10000 nM
same,GI50,[33],161 nM and 44.5 nM
same,GI50,[34],112 nM and 54.4 nM
same,TGI,[34],70000 nM and > 10000 nM
same,GI50,[35],203 nM and 87.4 nM
same,TGI,[35],> 100000 nM
same,GI50,[36],97.6 nM and 39.4 nM
same,TGI,[36],413 nM and 255 nM
same,GI50,[37],127 nM and 63.3 nM
same,TGI,[37],12600 nM and > 10000 nM
same,GI50,[38],69.1 nM and 66.9 nM
same,TGI,[38],847 nM and 1400 nM
same,GI50,[39],717 nM and 361 nM
same,TGI,[39],9780 nM and > 6740 nM
same,GI50,[40],59 nM and 41.8 nM
same,TGI,[40],2200 nM and 1990 nM
same,GI50,[41],28.6 nM
same,TGI,[41],191 nM
same,GI50,[42],135 nM and 97.5 nM
same,TGI,[42],> 100000 nM
same,GI50,[43],50.5 nM
same,TGI,[43],512 nM
same,GI50,[44],93.3 nM and 75.6 nM
same,TGI,[44],12700 nM and > 6870 nM
same,GI50,[45],146 nM and 71.8 nM
same,TGI,[45],3440 nM and 1160 nM
same,GI50,[46],23.5 nM and 21.7 nM
same,TGI,[46],264 nM and 163 nM
same,GI50,[47],143 nM and 53.9 nM
same,TGI,[47],> 100000 nM
same,GI50,[48],52.6 nM and 37.6 nM
same,TGI,[48],1270 nM and 1320 nM
same,GI50,[49],120 nM and 69.4 nM
same,TGI,[49],719 nM and 536 nM
same,GI50,[50],105 nM
same,TGI,[50],494 nM
same,GI50,[51],34.8 nM and 23.7 nM
same,TGI,[51],346 nM and 336 nM
same,GI50,[52],195 nM and 93.2 nM
same,TGI,[52],741 nM and 538 nM
same,GI50,[53],143 nM and 77.3 nM
same,TGI,[53],7790 nM and > 10000 nM
same,GI50,[54],105 nM and 52.5 nM
same,TGI,[54],696 nM and 414 nM
same,GI50,[55],40.6 nM
same,TGI,[55],477 nM
same,GI50,[56],203 nM and 133 nM
same,TGI,[56],29800 nM and > 6670 nM
same,GI50,[57],40.9 nM and 28.4 nM
same,TGI,[57],378 nM and 208 nM
same,GI50,[58],166 nM and 44 nM
same,TGI,[58],3870 nM and 2120 nM
